# Measured values from ChEMBL document CHEMBL1201862, “PubChem BioAssay data set” (2004).
# Calls of active or inactive are those of the source.
# Experiments:
# [1] = target: T1, DNA dC->dU-editing enzyme APOBEC-3G (Homo sapiens, UniProt Q9HC16); assay: Dose Response confirmation of small molecule APOBEC3G DNA Deaminase Inhibitors via a fluorescence-based single-stranded DNA deaminase assay. [Related pubchem assays (depositor defined):AID493012, AID493028]; assay type: functional
# [2] = target: Eukaryotic translation initiation factor 4H (Homo sapiens, UniProt Q15056); assay: human eIF4H binding inhibitors, primary screen, translation initiation inhibitor project, biochemical, uHTS, fluorescence polarization (AID 2012)
# [3] = target: Polyadenylate-binding protein 1 (Homo sapiens, UniProt P11940); assay: PABP poly(A) RNA binding inhibitors, primary screen, biochemical, fluorescence polarization, uHTS (AID 2014)
# [4] = target: T2, Short transient receptor potential channel 4 (Mus musculus, UniProt Q9QUQ5); assay: mouse TRPC4 channel activators, dose response, cell-based, HEK293 TRPC4/mu-opioid, Fluo-4 calcium (AID 434937); assay type: functional
# T2 sequence (Q9QUQ5 whole entry): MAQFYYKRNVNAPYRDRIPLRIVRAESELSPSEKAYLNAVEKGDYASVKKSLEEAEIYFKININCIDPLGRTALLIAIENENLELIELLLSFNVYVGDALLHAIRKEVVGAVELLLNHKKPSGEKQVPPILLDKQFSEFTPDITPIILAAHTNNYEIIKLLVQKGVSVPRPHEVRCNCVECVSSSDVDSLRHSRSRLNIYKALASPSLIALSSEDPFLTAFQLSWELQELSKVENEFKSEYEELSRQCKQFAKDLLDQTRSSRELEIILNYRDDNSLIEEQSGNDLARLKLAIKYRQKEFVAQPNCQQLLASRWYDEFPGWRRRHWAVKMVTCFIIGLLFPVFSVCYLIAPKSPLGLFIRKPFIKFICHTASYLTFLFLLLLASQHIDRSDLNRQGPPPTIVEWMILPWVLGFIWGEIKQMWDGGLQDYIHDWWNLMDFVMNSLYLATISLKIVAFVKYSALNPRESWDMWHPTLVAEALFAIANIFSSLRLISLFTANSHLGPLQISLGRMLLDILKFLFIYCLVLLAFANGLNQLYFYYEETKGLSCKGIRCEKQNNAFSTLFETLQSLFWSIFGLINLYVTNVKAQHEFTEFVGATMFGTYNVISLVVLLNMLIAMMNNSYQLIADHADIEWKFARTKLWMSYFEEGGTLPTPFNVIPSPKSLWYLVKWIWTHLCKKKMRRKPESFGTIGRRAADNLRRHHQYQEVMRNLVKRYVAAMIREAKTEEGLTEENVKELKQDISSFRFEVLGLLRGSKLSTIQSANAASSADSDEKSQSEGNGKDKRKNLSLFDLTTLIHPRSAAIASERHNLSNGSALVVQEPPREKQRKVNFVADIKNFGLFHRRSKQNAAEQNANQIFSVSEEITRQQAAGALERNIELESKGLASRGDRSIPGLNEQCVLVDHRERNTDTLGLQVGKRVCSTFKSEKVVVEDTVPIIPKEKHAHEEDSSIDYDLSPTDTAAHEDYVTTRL
# Aminopeptidase N = target: T3, Aminopeptidase N (Plasmodium falciparum FcB1/Columbia, UniProt O96935); assay: P. falciparum M1AAP inhibitors, biochemical, fluorogenic H-Leu-NHMec substrate, 1536-well (AID 1445); set-up: species or system Plasmodium falciparum 3D7, 3D7
# T3 sequence (O96935 whole entry): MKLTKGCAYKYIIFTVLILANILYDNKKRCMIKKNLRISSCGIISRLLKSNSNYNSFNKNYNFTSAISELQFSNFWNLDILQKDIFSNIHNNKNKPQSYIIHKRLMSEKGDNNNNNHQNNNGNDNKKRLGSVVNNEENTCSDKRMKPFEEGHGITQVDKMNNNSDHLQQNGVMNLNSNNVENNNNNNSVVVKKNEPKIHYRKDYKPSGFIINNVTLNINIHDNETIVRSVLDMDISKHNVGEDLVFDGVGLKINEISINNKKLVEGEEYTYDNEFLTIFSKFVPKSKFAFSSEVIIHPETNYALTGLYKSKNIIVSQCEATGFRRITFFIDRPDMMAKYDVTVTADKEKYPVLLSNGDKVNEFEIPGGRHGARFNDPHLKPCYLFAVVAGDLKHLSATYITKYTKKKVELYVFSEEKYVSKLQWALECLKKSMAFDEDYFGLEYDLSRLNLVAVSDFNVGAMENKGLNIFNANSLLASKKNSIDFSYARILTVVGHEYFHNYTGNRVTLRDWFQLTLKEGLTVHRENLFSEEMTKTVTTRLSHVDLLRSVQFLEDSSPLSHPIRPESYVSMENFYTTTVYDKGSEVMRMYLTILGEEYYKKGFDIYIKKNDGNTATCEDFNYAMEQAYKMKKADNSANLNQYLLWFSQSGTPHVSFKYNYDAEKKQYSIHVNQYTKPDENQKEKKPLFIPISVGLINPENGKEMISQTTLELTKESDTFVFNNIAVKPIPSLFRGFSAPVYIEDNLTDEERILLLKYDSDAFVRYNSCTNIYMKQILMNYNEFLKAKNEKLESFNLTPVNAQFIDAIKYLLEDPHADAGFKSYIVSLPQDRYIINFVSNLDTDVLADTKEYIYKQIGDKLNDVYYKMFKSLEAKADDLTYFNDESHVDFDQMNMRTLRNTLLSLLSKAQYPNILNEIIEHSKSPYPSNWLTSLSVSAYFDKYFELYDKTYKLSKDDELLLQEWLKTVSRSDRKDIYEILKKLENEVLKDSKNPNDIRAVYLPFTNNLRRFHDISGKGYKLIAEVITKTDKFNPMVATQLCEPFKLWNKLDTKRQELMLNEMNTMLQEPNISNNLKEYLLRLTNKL
# [5] = target: Glucose-6-phosphate 1-dehydrogenase (Homo sapiens, UniProt P11413); assay: human G6PD enzyme inhibitors, dose response, selectivity assay for P. falciparum G6PD inhibitor project, biochemical, fluorescence (AID 504792); assay type: functional
# [6] = target: Luciferin 4-monooxygenase (Photinus pyralis, UniProt P08659); assay: Counter Screen for Luciferase-based Assay Positives. [Related pubchem assays: 620, 618, 411 ]
# HT-1080 = assay: cytotoxicity in HT1080 fibrosarcoma cells, cell-based, fluorescence readout (AID 620); assay type: functional; settings: Homo sapiens
# [7] = target: Peroxisome proliferator-activated receptor gamma/Nuclear receptor coactivator 3 (Homo sapiens, UniProt P37231); assay type: functional;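 note: agonist potency for raising coactivator recruitment to the receptor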
# [8] = target: Peroxisome proliferator-activated receptor gamma/Nuclear receptor coactivator 1 (Homo sapiens, UniProt P37231); assay type: functional;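 note: agonist potency as compounds enhance coactivator SRC-1 recruitment to PPARgamma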
# [9] = target: Peroxisome proliferator-activated receptor gamma/Nuclear receptor coactivator 2 (Homo sapiens, UniProt P37231); assay type: functional;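 note: agonist potency for raising coactivator recruitment to the receptor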
# [10] = target: G-protein coupled receptor 55 (Homo sapiens, UniProt Q9Y2T6); assay: GPR55 agonists via beta-arrestin recruitment, primary screen, imaging, U2OS cells, beta-arrestin-GFP redistribution (AID 1961); assay type: functional
# [11] = target: FAD-linked sulfhydryl oxidase ALR (Homo sapiens, UniProt P55789); assay: inhibitors of human ALR sulfhydryl oxidase, dose response, biochemical, H2O2 detection, luminescence, cherry-pick (AID 493248)
# [12] = target: DNA dC->dU-editing enzyme APOBEC-3A (Homo sapiens, UniProt P31941); assay: Dose Response confirmation of small molecule APOBEC3A DNA Deaminase Inhibitors via a fluorescence-based single-stranded DNA deaminase assay. [Related pubchem assays (depositor defined):AID493011, AID493024]; assay type: functional
# [13] = target: T1, DNA dC->dU-editing enzyme APOBEC-3G; assay type: functional
# [14] = HEp-2 cell cytotoxicity, dose response, cytotoxicity control for RSV inhibitor project, HTS (AID 2410); assay type: functional; settings: human respiratory syncytial virus
# [15] = inhibitors of Vif binding to APOBEC3G peptide, primary screen, biochemical, TR-FRET, GST-Vif 1-94, biotin-A3G peptide, dose response retest (AID 1117319); assay type: functional;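 note: TR-FRET signal of purified GST-Vif binding a biotinylated A3G peptide; inhibitors lower the FRET signal by blocking Vif and A3G binding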
# [16] = THP-1 cell cytotoxicity, dose response, cytotoxicity control for Vif-APOBEC3G degradation inhibitor project, THP-1 cells (AID 1117359); assay type: functional; settings: Human immunodeficiency virus 1, THP-1
# T1 sequence (Q9HC16 whole entry): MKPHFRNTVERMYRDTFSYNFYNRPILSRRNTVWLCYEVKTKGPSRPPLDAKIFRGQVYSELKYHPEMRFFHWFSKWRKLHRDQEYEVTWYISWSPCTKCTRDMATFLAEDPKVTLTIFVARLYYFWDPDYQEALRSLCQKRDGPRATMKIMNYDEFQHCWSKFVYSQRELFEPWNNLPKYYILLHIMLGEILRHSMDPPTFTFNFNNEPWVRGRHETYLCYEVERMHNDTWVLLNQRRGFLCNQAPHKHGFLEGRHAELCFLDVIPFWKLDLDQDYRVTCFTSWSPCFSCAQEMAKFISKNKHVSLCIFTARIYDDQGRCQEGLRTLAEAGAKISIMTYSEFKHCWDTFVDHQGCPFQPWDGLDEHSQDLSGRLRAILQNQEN
# Sequence of Polyadenylate-binding protein 1 (P11940 whole entry): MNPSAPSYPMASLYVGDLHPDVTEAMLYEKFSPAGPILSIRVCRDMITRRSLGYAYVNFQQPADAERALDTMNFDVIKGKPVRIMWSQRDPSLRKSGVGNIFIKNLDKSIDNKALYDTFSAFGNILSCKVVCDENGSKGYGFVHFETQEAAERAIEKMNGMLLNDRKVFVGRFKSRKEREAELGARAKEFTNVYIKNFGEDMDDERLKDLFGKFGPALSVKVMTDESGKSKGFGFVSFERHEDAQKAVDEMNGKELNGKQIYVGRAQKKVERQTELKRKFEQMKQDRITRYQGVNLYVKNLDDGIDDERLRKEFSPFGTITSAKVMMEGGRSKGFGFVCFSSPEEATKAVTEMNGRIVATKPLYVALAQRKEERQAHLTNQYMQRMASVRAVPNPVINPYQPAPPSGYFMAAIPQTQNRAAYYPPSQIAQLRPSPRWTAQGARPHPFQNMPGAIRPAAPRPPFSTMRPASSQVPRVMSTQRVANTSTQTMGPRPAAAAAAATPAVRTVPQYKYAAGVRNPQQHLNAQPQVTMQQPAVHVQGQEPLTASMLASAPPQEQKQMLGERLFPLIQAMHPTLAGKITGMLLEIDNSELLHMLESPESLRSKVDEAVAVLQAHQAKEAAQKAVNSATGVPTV
# Sequence of DNA dC->dU-editing enzyme APOBEC-3A (P31941 whole entry): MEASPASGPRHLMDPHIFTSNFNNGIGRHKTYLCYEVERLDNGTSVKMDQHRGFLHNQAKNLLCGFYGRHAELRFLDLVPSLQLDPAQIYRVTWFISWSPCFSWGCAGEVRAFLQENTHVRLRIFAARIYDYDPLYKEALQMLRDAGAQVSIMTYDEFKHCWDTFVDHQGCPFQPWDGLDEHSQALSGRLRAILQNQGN
# Sequence of Peroxisome proliferator-activated receptor gamma/Nuclear receptor coactivator 2 (P37231 whole entry): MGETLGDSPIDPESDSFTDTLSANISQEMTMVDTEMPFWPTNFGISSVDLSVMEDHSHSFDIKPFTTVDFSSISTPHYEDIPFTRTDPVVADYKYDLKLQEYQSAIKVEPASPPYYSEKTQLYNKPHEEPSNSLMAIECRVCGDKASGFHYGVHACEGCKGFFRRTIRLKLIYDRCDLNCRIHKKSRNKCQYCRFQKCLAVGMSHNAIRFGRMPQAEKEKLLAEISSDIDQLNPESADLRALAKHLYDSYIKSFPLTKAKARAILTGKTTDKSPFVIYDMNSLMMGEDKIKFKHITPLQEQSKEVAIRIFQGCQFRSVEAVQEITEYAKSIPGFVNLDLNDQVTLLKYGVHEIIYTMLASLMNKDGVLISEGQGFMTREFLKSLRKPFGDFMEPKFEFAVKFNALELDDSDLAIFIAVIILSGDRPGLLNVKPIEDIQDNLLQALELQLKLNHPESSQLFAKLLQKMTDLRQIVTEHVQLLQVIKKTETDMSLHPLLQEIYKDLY
# Sequence of Peroxisome proliferator-activated receptor gamma/Nuclear receptor coactivator 2 (Q15596 whole entry, further chain): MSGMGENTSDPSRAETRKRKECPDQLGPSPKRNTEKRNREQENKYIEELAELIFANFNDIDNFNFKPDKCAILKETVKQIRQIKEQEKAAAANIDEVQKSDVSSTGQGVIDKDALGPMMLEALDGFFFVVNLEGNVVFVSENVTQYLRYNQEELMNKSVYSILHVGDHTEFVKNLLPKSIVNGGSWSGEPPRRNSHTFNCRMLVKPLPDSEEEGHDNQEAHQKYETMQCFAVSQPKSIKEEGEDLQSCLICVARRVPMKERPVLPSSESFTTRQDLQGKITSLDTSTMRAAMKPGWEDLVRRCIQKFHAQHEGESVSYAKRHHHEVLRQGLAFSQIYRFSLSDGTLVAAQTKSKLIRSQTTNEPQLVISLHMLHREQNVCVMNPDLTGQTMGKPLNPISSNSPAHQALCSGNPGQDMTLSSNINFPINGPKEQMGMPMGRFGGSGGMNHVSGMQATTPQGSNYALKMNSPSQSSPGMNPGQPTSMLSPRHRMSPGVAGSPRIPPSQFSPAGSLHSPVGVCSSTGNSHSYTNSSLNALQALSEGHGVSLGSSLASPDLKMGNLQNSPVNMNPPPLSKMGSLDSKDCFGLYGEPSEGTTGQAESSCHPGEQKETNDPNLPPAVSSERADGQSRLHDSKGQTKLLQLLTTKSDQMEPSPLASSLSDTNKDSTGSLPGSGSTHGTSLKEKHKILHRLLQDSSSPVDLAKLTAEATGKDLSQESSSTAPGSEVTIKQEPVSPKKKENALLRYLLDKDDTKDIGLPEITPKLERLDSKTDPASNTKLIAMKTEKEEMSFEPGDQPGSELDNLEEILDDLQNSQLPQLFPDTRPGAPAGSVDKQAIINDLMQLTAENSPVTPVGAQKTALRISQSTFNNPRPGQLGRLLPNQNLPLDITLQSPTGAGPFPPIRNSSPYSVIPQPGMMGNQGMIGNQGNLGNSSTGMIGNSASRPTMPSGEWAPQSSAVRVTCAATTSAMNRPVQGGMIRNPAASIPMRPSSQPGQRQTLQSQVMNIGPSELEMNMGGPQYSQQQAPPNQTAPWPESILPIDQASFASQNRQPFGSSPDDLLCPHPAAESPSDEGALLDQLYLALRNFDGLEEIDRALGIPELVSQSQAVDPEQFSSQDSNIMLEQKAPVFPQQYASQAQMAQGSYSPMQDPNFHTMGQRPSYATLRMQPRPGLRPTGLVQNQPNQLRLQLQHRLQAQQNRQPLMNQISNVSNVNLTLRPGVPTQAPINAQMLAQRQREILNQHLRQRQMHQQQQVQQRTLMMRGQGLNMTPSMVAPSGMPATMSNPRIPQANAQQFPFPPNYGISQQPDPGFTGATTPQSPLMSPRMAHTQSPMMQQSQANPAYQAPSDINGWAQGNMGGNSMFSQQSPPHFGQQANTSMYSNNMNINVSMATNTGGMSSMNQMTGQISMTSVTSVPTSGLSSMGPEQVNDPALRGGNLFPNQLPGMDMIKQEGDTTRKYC
# Sequence of Glucose-6-phosphate 1-dehydrogenase (P11413 whole entry): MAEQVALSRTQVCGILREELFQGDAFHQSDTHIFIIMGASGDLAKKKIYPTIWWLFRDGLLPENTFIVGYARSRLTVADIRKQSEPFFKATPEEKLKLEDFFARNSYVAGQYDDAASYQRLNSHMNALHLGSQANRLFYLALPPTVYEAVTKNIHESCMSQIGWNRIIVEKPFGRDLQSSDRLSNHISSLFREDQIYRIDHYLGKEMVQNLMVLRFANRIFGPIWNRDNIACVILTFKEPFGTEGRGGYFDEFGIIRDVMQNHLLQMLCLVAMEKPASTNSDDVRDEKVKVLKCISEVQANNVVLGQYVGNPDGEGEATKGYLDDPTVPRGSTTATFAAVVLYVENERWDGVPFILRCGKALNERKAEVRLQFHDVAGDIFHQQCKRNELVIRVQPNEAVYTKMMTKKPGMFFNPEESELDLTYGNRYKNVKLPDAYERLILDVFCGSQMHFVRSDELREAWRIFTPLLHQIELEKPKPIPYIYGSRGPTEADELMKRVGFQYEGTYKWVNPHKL
# Sequence of Luciferin 4-monooxygenase (P08659 whole entry): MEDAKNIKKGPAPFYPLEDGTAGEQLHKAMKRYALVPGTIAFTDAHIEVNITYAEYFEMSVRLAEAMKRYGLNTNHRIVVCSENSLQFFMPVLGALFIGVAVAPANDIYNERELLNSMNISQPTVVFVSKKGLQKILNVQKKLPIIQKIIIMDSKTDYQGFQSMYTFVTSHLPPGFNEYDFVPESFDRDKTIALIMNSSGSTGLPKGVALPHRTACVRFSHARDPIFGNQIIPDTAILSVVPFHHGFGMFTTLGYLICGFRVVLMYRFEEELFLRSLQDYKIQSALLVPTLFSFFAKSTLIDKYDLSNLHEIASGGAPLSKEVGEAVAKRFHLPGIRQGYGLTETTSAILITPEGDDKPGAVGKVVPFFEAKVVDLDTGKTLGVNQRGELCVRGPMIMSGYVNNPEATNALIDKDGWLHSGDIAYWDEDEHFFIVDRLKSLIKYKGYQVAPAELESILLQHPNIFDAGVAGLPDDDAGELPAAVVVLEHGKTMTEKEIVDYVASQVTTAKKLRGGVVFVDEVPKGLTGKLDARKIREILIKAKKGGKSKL
# Sequence of G-protein coupled receptor 55 (Q9Y2T6 whole entry): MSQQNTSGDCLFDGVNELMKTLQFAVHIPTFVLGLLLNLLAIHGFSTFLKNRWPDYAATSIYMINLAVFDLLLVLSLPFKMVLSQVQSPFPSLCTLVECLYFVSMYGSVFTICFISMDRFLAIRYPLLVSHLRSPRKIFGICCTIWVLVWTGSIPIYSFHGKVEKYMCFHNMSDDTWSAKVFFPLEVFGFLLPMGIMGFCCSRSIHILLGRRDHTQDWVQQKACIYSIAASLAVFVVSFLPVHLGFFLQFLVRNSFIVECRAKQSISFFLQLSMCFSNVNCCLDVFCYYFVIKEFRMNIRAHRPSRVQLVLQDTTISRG
structure (smiles),measurement,setting,value
Cc1cc(=O)n2nc(-c3ccccc3)sc2c1C#N,IC50,[1],39.2 µM (active)
CCOc1ccccc1/N=C1/SCCCN1C,IC50,[2],> 100 µM (inactive)
same,IC50,[3],4.4 µM (active)
O=C(NCCNC1CCC(c2ccccc2)CC1)c1cccs1 (centres undefined),EC50,[4],0.335 µM (active)
O=C(NCc1ccccc1)C1CCN(S(=O)(=O)c2cccc3cccnc23)CC1,IC50,Aminopeptidase N,42.1 µM (active)
CN(C)c1cccc2c1c(NC(=O)c1ccc(F)cc1)nn2C,IC50,[5],> 80 µM (inactive)
CCn1c(SCC(=O)Nc2ccccc2C)nnc1-c1ccccc1O,EC50,[6],> 100 µM (not active)
same,EC50,HT-1080,> 50 µM (not active)
CC(=O)Nc1ccc2oc(-c3cc(F)c(F)cc3Cl)nc2c1,EC50,[6],16.2 µM (active)
same,EC50,HT-1080,> 50 µM (not active)
O=C(c1ccccc1)c1cnc(-c2ccc(Cl)cc2)s1,EC50,[7],21.4 µM (not active)
same,EC50,[8],14.4 µM (not active)
same,EC50,[9],11.9 µM (not active)
CCn1c(N2CCN(S(=O)(=O)CC)CC2)nc2ccccc21,EC50,[4],2.66 µM (active)
COc1ccc(C(=O)NC(=S)NCc2ccc(-c3nc4ccccc4o3)cc2)cc1OC,EC50,[10],> 32 µM (inactive)
CCOCCCn1c(S)nnc1-c1ccc(Cl)cc1,IC50,[1],13.8 µM (active)
O=S(=O)(Nc1ccc(O)c(NS(=O)(=O)c2ccccc2)c1)c1ccccc1,AC50,[11],1.23 µM (active)
same,IC50,[1],55.1 µM (active)
COC(=O)C1=C(C)N(Cc2ccccc2)C(NCCCOC(C)C)=N[C@H]1c1ccccc1,IC50,[12],3.37 µM (active)
same,IC50,[13],5.12 µM (active)
O=C1OCCC1Sc1nnc(-c2ccc(Br)cc2)o1 (centres undefined),EC50,[7],> 79.4 µM (not active)
same,EC50,[8],> 79.4 µM (not active)
same,EC50,[9],75.3 µM (not active)
CCOc1cc(C2Nc3cccc4cccc(c34)N2)ccc1O,EC50,[10],8.01 µM (active)
same,CC50,[14],20.2 µM (active)
C[N+]1(C)C2CCC1CC(OC(=O)c1ccccc1)C2 (centres undefined),IC50,[12],2.96 µM (active)
same,IC50,[13],1.75 µM (active)
COc1ccccc1C(=O)Nc1ccc(-c2nnc(SCC(=O)O)n2C)cc1,IC50,[15],> 100 µM (active)
COc1ccc(F)cc1S(=O)(=O)Nc1cc2c3c(c1)CC(=O)N3CCC2,CC50,[16],> 40 µM (active)
CCN1C(=NCC(C)C)N[C@@H](c2cccc(F)c2)C(C(=O)OC)=C1C,IC50,[2],> 100 µM (inactive)
same,IC50,[3],5.33 µM (active)
CC(CCc1ccccc1)NC(=O)C(Cc1ccccc1)NS(=O)(=O)c1cccs1 (centres undefined),IC50,Aminopeptidase N,71.4 µM (active)
CCS(=O)(=O)N1CCC(C(=O)NCc2ccccn2)CC1,IC50,[15],> 100 µM (active)
COc1ccccc1NC(=O)COC(=O)c1c(NC(C)=O)sc(C)c1C,CC50,[16],> 40 µM (active)
CCN1C(NCCOC)=N[C@@H](CCc2ccccc2)[C@H](C(=O)OC)[C@H]1C,IC50,[2],> 100 µM (inactive)
same,IC50,[3],8.16 µM (active)
same,IC50,[12],3.39 µM (active)
same,IC50,[13],4.15 µM (active)
Cc1nnc(SCC(=O)c2cc(C)n(-c3ccc4c(c3)OCO4)c2C)s1,IC50,[5],> 80 µM (inactive)
